Measurements from paper PMC3742363 (Chemistry & biology, 2013).
Changes are numbered by the printed parent chain.

Experiments:
[1] = target: T1, p38δ wt (Mus musculus, UniProt Q9Z1B7); test: Kinetics: activity assay at varied ATP concentrations; type: biochemical; conditions: read-out: Km(ATP); activated p38δ wt
T1 sequence (Q9Z1B7 1-366): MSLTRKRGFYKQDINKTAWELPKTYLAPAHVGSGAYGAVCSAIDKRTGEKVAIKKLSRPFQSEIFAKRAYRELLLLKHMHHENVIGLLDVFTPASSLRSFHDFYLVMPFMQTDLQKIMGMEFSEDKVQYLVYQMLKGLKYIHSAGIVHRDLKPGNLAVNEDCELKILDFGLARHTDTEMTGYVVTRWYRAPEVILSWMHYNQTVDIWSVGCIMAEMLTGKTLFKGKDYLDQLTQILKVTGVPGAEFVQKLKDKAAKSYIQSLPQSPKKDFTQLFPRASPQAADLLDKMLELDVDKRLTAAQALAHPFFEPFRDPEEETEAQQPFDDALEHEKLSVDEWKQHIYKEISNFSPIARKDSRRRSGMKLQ

[2] = target: T2, p38α T106Q (Mus musculus, UniProt P47811, T106Q); test: as above; type: biochemical; conditions: read-out: Km(ATP); activated p38α T106Q; rate of reaction maintained linearity as high as 1000 μM ATP
T2 sequence (P47811 whole entry T106Q): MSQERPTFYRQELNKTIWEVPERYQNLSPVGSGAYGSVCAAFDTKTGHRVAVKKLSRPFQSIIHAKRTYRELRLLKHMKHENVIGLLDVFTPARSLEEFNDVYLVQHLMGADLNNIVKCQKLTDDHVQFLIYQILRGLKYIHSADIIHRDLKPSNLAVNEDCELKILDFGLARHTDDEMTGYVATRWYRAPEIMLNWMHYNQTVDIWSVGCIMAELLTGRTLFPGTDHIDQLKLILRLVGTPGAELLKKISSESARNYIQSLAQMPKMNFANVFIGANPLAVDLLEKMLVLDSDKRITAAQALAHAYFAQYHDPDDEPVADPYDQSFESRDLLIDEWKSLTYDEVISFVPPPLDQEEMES

[3] = target: Jnk3 wt (Homo sapiens, UniProt P53779); test: as above; type: biochemical; conditions: read-out: Km(ATP); activated Jnk3 wt
Sequence of Jnk3 wt (P53779 whole entry): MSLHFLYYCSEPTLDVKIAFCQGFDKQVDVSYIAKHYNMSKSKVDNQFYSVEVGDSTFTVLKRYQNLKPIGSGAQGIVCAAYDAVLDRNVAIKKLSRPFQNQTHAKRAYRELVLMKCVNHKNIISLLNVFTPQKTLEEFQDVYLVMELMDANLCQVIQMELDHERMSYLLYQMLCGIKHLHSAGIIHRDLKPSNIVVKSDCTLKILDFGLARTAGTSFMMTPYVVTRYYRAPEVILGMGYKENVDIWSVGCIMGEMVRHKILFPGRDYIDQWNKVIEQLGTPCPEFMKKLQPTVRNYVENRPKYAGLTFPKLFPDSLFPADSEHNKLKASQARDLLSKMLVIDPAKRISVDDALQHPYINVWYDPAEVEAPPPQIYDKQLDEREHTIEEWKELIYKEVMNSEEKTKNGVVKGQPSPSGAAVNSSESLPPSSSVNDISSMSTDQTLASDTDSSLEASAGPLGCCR

[4] = target: T3, p38δ M107T (Mus musculus, UniProt Q9Z1B7, M107T); test: as above; type: biochemical; conditions: read-out: Km(ATP); activated p38δ M107T
T3 sequence (Q9Z1B7 1-366 M107T): T1 sequence (Q9Z1B7 1-366) with M107T

[5] = target: Erk2 Q103T (Rattus norvegicus, UniProt P63086, Q103T); conditions: read-out: Km(ATP); activated Erk2 Q103T
[6] = target: T4, p38α wt (Mus musculus, UniProt P47811); test: Kinetics: activity assay at varied ATP concentrations; type: biochemical; conditions: read-out: Km(ATP); activated p38α wt
T4 sequence (P47811 whole entry): as the sequence (P47811 whole entry T106Q) above, with Q106T counted along it

[7] = target: Jnk3 M146I (Homo sapiens, UniProt P53779, M146I); test: as above; type: biochemical; conditions: read-out: Km(ATP); activated Jnk3 M146I
Sequence of Jnk3 M146I (P53779 whole entry M146I): as the sequence (P53779 whole entry) above, with M146I counted along it

[8] = target: Erk2 Q103T/C164L (Rattus norvegicus, UniProt P63086, C164L/Q103T); conditions: read-out: Km(ATP); activated Erk2 Q103T/C164L
[9] = target: Erk2 wt (Rattus norvegicus, UniProt P63086); conditions: read-out: Km(ATP); activated Erk2 wt
[10] = target: Erk2 Q103A/C164L (Rattus norvegicus, UniProt P63086, C164L/Q103A); conditions: read-out: Km(ATP); activated Erk2 Q103A/C164L
[11] = target: T2, p38α T106Q; test: Kinase activity assay; type: biochemical
[12] = target: T4, p38α wt; test: Kinase activity assay; type: biochemical

Nc1ncnc2c1ncn2[C@@H]1O[C@H](COP(=O)(O)OP(=O)(O)OP(=O)(O)O)[C@@H](O)[C@H]1O [ATP]
Km [1]: 91 ± 6 µM
Km [2]: > 1000 µM
Km [3]: 8.3 ± 0.6 µM
Km [4]: 380 ± 40 µM
Km [5]: 83 ± 5 µM
Km [6]: 229 ± 16 µM
Km [7]: 66 ± 3 µM
Km [8]: 180 ± 20 µM
Km [9]: 120 ± 10 µM
Km [10]: 137 ± 6 µM

Cc1ccc(C(=O)Nc2ccc(CN3CCN(C)CC3)c(C(F)(F)F)c2)cc1C#Cc1cnc2cccnn12 [L1, Iclusig]
Ki [11]: 3700 ± 400 nM
Ki [12]: 8.1 ± 0.2 nM
